# Patent publication US8182842B1, “Physico-chemical-managed killing of penicillin-resistant static and growing gram-positive and gram-negative vegetative bacteria” (The United States of America as represented by the …, priority 2010, dated 2012)
# “Also recorded” adds a separate entry of the source.
# How the values were obtained:
# [1] = system: methicillin-resistant Staphylococcus aureus (MRSA); test: kill curve time course of MRSA suspensions (CFU survival); type: cell-based
# Procedure: FIGS. 1 through 17 illustrate kill curve time course experiments of stationary and logarithmic-phase MRSA bacterial suspensions exposed to PBS as well as denaturing SS at pH […] or pH 7.4 in the presence of cloxacillin concentrations spanning from 512 μg/ml to 4096 μg/ml. Experiments were conducted at 22° C. or 35° C. The completion time for the experiments ranged from 20 minutes to 24 hours.
# For these experiments, the MRSA strain was grown overnight in Mueller-Hinton broth (MH)+2% NaCl at 35° C., subcultured into fresh media, and grown to mid-logarithmic phase. The cells were centrifuged and resuspended in pH 7.4 MH+2% NaCl to produce an OD600 nm known to indicate logarithmic-phase or stationary-phase of growth. An appropriate volume of cells was added to 1 ml of buffered SS in a 10 ml Falcon tube to yield a final concentration of ca. 1×10^8 colony forming units (CFU)/ml, except for the experiments of FIGS. 1-4 where the final concentration of ca. 1×10^6 CFU/ml applies. Survival was determined for bacteria held for varied exposure times of up to 24 hours in the SS or in PBS at pH 5.6 or pH 7.4, each altered with cloxacillin concentrations ranging in doublings from 512 μg/ml to 4096 μg/ml. Survival was measured from samples held at 22° C. and 35° C. After exposure, samples of 50 μl were then withdrawn and a serial dilution series established. Cells were then plated on MH+2% NaCl agar plates and incubated at 22° C. or 35° C. for CFU formation, after which colonies were counted, surviving fractions recorded, and survival curves constructed. Triplicate experiments were conducted for each exposure condition. The cells were treated under static conditions in all cases and treatments were always made on cells held in salt solutions, never on cells held in growth media. In addition to logarithmic-phase cells, stationary-phase cells removed from growth cycle were also treated.
# Killing efficiency is evaluated as therapeutically sufficient according to the 10^−5 level of killing in 5 minutes specified by the British Standard BS EN 1276:1997 Chemical Disinfectants and Antiseptics, which is referred to as the gold standard for efficacy of bactericidal agents. Typically, agents meeting the British Standard are too toxic for human topical application. However, this is not a restriction for effective SS containing cloxacillin used in the illustrated embodiment.
# Pseudomonas aeruginosa = test: kill curve time course of Pseudomonas aeruginosa suspensions (CFU survival); type: cell-based; settings: for killing: 20 minutes
# Procedure: FIGS. 18 through 41 illustrate kill curve time-course experiments of stationary-phase and logarithmic-phase Pseudomonas aeruginosa bacterial suspensions exposed to PBS, to SS, to PBS in the presence of cloxacillin concentrations spanning from 512 μg/ml to 4096 μg/ml, or to SS in the presence of cloxacillin concentrations spanning from 512 μg/ml to 4096 μg/ml. Experiments were conducted at 22° C. or 35° C. over the course of 10, 20, or 60 minutes.
# Pseudomonas aeruginosa cells were prepared as described above for MRSA with a few exceptions. The Pseudomonas aeruginosa cells were first grown in trypticase soy broth and then frozen in aliquots, which were later rescued into MH broth+2% NaCl for use as in the MRSA experiments. An appropriate volume of cells was added to 1 ml of comparative salt solutions in a 10 ml Falcon tube to yield a final concentration of ca. 1×10^8 colony forming units (CFU)/ml. Survival was determined for bacteria held for varied exposure times of up to 60 minutes in PBS, in SS, in PBS altered with cloxacillin concentrations ranging in doublings from 512 μg/ml to 4096 μg/ml, or in SS containing cloxacillin concentrations ranging in doublings from 512 μg/ml to 4096 μg/ml. The salt solutions were compared at a pH of 5.6 or 7.4. Survival was measured from samples held at 22° C. or 35° C. After exposure, samples of 50 μl were then withdrawn and a serial dilution series established. Cells were then plated on MH+2% NaCl agar plates and incubated at 22° C. or 35° C. for CFU formation, after which colonies were counted, surviving fractions recorded, and survival curves constructed. Triplicate experiments were conducted for each exposure condition. The cells were treated under static conditions in all cases and treatments were always made on cells held in salt solutions, never on cells held in growth media. In addition to logarithmic-phase cells, stationary-phase cells removed from growth cycle were also treated.
compound,measurement,setting,value
Cc1onc(-c2ccccc2Cl)c1C(=O)N[C@@H]1C(=O)N2[C@@H]1SC(C)(C)[C@@H]2C(=O)O [cloxacillin],killing effect,"[1]; FIG. 1, pH 5.5 PBS, 1024 μg/ml cloxacillin, 22° C., logarithmic-phase MRSA, 20 minute",non-substantial killing effect; also recorded: not effective
same,killing effect,"[1]; FIG. 2, pH 7.4 PBS, 512 μg/ml cloxacillin, 22° C., logarithmic-phase MRSA, 20 minute",non-substantial killing effect; also recorded: not effective
same,killing effect,"[1]; FIG. 3, pH 5.5 SS, 1024 μg/ml cloxacillin, 22° C., logarithmic-phase MRSA, 20 minute",not effective; also recorded: non-substantial killing effect
same,killing effect,"[1]; FIG. 4, pH 7.4 SS, 512 μg/ml cloxacillin, 22° C., logarithmic-phase MRSA, 60 minute",substantial killing; also recorded: killing effect
same,surviving fraction,"[1]; FIG. 4, pH 7.4 SS, 512 μg/ml cloxacillin, 22° C., logarithmic-phase MRSA, all time points, no survivors on treated plates",< 2×10^−4
same,killing effect,"[1]; FIG. 5, pH 7.4 SS, 512 μg/ml cloxacillin, 22° C., stationary-phase MRSA, 60 minute",killing effect
same,killing effect,"[1]; FIG. 6, pH 7.4 SS, 1024 μg/ml cloxacillin, 22° C., stationary-phase MRSA, 60 minute",killing effect
same,killing effect,"[1]; FIG. 7, pH 7.4 SS, 2048 μg/ml cloxacillin, 22° C., stationary-phase MRSA, 60 minute",killing effect
same,killing effect,"[1]; FIG. 8, pH 7.4 SS, 4096 μg/ml cloxacillin, 22° C., stationary-phase MRSA, 60 minute",killing effect
same,time in which the 10^−5 level of killing is achieved,"[1]; FIG. 9, pH 7.4 SS, 4096 μg/ml cloxacillin, 22° C., stationary-phase MRSA",3 hours
same,killing effect,"[1]; FIG. 9, pH 7.4 SS, 4096 μg/ml cloxacillin, 22° C., stationary-phase MRSA, 24 hour",killing effect
same,killing effect,"[1]; FIG. 10, pH 7.4 SS, 512 μg/ml cloxacillin, 35° C., logarithmic-phase MRSA, 20 minute",killing effect
same,killing effect,"[1]; FIG. 11, pH 7.4 SS, 1024 μg/ml cloxacillin, 35° C., logarithmic-phase MRSA, 20 minute",killing effect
same,killing effect,"[1]; FIG. 12, pH 7.4 SS, 2048 μg/ml cloxacillin, 35° C., logarithmic-phase MRSA, 20 minute",killing effect
same,killing effect,"[1]; FIG. 13, pH 7.4 SS, 4096 μg/ml cloxacillin, 35° C., logarithmic-phase MRSA, 20 minute",killing effect
same,killing effect,"[1]; FIG. 14, pH 7.4 SS, 512 μg/ml cloxacillin, 35° C., stationary-phase MRSA, 60 minute",killing effect
same,killing effect,"[1]; FIG. 15, pH 7.4 SS, 1024 μg/ml cloxacillin, 35° C., stationary-phase MRSA, 60 minute",killing effect
same,killing effect,"[1]; FIG. 16, pH 7.4 SS, 2048 μg/ml cloxacillin, 35° C., stationary-phase MRSA, 60 minute",killing effect
same,killing effect,"[1]; FIG. 17, pH 7.4 SS, 4096 μg/ml cloxacillin, 35° C., stationary-phase MRSA, 60 minute",killing effect
same,efficiency of killing versus British Standard BS EN 1276:1997 (10^−5 level of killing in 5 minutes),"[1]; FIGS. 5-9, pH 7.4 SS, 512 to 4096 μg/ml cloxacillin, 22° C., stationary-phase MRSA",does not provide the 10^−5 level of killing in 5 minutes
same,killing compared with 22° C.,"[1]; FIGS. 10-13, pH 7.4 SS, 512 to 4096 μg/ml cloxacillin, 35° C., logarithmic-phase MRSA",killing is enhanced
same,killing compared with 22° C.,"[1]; FIGS. 14-17, pH 7.4 SS, 512 to 4096 μg/ml cloxacillin, 35° C., stationary-phase MRSA",enhanced killing
same,efficiency of killing versus British Standard BS EN 1276:1997 (10^−5 level of killing in 5 minutes),"[1]; pH 7.4 SS with cloxacillin, 35° C., logarithmic-phase MRSA",approaches or exceeds the 10^−5 level of killing in 5 minutes
same,efficiency of killing versus British Standard BS EN 1276:1997 (10^−5 level of killing in 5 minutes),"[1]; pH 7.4 SS with cloxacillin, 35° C., stationary-phase MRSA",approaches or exceeds the 10^−5 level of killing in 5 minutes
same,killing effect,"Pseudomonas aeruginosa; FIG. 22, pH 7.4 PBS, 512 μg/ml cloxacillin, 22° C., logarithmic-phase, 20 minute",non-substantial killing effect
same,killing effect,"Pseudomonas aeruginosa; FIG. 23, pH 7.4 PBS, 1024 μg/ml cloxacillin, 22° C., logarithmic-phase, 20 minute",non-substantial killing effect
same,killing effect,"Pseudomonas aeruginosa; FIG. 24, pH 7.4 PBS, 2048 μg/ml cloxacillin, 22° C., logarithmic-phase, 20 minute",non-substantial killing effect
same,killing effect,"Pseudomonas aeruginosa; FIG. 25, pH 7.4 PBS, 4096 μg/ml cloxacillin, 22° C., logarithmic-phase, 20 minute",non-substantial killing effect
same,killing effect,"Pseudomonas aeruginosa; FIG. 26, pH 7.4 SS, 512 μg/ml cloxacillin, 22° C., logarithmic-phase, 20 minute",killing effect
same,killing effect,"Pseudomonas aeruginosa; FIG. 27, pH 7.4 SS, 1024 μg/ml cloxacillin, 22° C., logarithmic-phase, 20 minute",killing effect
same,killing effect,"Pseudomonas aeruginosa; FIG. 28, pH 7.4 SS, 2048 μg/ml cloxacillin, 22° C., logarithmic-phase, 10 minute",killing effect
same,killing effect,"Pseudomonas aeruginosa; FIG. 29, pH 7.4 SS, 4096 μg/ml cloxacillin, 22° C., logarithmic-phase, 10 minute",killing effect
same,killing effect,"Pseudomonas aeruginosa; FIG. 30, pH 7.4 PBS, 512 μg/ml cloxacillin, 35° C., logarithmic-phase, 20 minute",non-substantial killing effect
same,killing effect,"Pseudomonas aeruginosa; FIG. 31, pH 7.4 PBS, 1024 μg/ml cloxacillin, 35° C., logarithmic-phase, 20 minute",non-substantial killing effect
same,killing effect,"Pseudomonas aeruginosa; FIG. 32, pH 7.4 PBS, 2048 μg/ml cloxacillin, 35° C., logarithmic-phase, 20 minute",non-substantial killing effect
same,killing effect,"Pseudomonas aeruginosa; FIG. 33, pH 7.4 PBS, 4096 μg/ml cloxacillin, 35° C., logarithmic-phase, 20 minute",non-substantial killing effect
same,killing effect,"Pseudomonas aeruginosa; FIG. 34, pH 7.4 SS, 512 μg/ml cloxacillin, 35° C., logarithmic-phase, 20 minute",killing effect
same,killing effect,"Pseudomonas aeruginosa; FIG. 35, pH 7.4 SS, 1024 μg/ml cloxacillin, 35° C., logarithmic-phase, 20 minute",killing effect
same,killing effect,"Pseudomonas aeruginosa; FIG. 36, pH 7.4 SS, 2048 μg/ml cloxacillin, 35° C., logarithmic-phase, 20 minute",killing effect
same,killing effect,"Pseudomonas aeruginosa; FIG. 37, pH 7.4 SS, 4096 μg/ml cloxacillin, 35° C., logarithmic-phase, 20 minute",killing effect
same,killing effect,"Pseudomonas aeruginosa; FIG. 38, pH 7.4 SS, 512 μg/ml cloxacillin, 22° C., stationary-phase, 20 minute",killing effect
same,killing effect,"Pseudomonas aeruginosa; FIG. 39, pH 7.4 SS, 1024 μg/ml cloxacillin, 22° C., stationary-phase, 20 minute",killing effect
same,killing effect,"Pseudomonas aeruginosa; FIG. 40, pH 7.4 SS, 2048 μg/ml cloxacillin, 22° C., stationary-phase, 20 minute",killing effect
same,killing effect,"Pseudomonas aeruginosa; FIG. 41, pH 7.4 SS, 4096 μg/ml cloxacillin, 22° C., stationary-phase, 20 minute",killing effect
same,killing,"Pseudomonas aeruginosa; FIGS. 22-25, PBS pH 7.4, 512 to 4096 μg/ml cloxacillin, 22° C., logarithmic-phase",non-substantial killing
same,efficiency of killing,"Pseudomonas aeruginosa; FIGS. 26-29, SS pH 7.4, all concentrations 512 to 4096 μg/ml cloxacillin, 22° C., logarithmic-phase, 10 or 20 minutes",substantially efficient in killing
same,killing,"Pseudomonas aeruginosa; FIGS. 30-33, PBS pH 7.4, 512 to 4096 μg/ml cloxacillin, 35° C., logarithmic-phase",non-substantial killing
same,killing,"Pseudomonas aeruginosa; FIGS. 34-37, SS pH 7.4, 512 to 4096 μg/ml cloxacillin, 35° C., logarithmic-phase",substantial killing
same,killing,"Pseudomonas aeruginosa; FIGS. 38-41, SS pH 7.4, 512 to 4096 μg/ml cloxacillin, 22° C., stationary-phase",substantial killing
